{
  "source": "patent US11622991B2",
  "about": "“Protocol for treatment of lupus nephritis” (Aurinia Pharmaceuticals Inc., priority 2017, dated 2023)",
  "key": {"lupus nephritis [1]": {"system": "lupus nephritis", "assay": "Predictability of week 48 partial remission from early C4 normalization (Table 11)", "type": "in vivo, human", "text": "(§1) PR is defined as at least 50% reduction in proteinuria (i.e. UPCR).\n(§2) Sensitivity is defined as the probability that a subject showing PR at 48 weeks would have shown a favorable result with regard to the marker at the designated early time point. In the tables below, this is the ratio of the number of subjects with favorable marker results (early drop or normalization) to the total subjects with 48 week PR.\n(§3) Specificity is defined as the probability that a subject not showing PR at 48 weeks would have shown an unfavorable result with regard to the marker at the designated early time point. In the tables below, this is the ratio of the number of subjects with unfavorable marker results (no early drop or no normalization) to the total subjects with no 48 week PR.\n(§4) Positive predictive value is defined as the probability that a subject showing a favorable result with respect to the marker at an earlier time point would show PR at 48 weeks. In the tables below, this is the ratio of the number of subjects with favorable marker results who have 48 week PR to those with favorable marker results (early reduction or yes column).\n(§5) Negative predictive value is defined as the probability that a subject showing an unfavorable result with respect to the marker at an earlier time point would not show PR at 48 weeks. In the tables below, this is the ratio of the number of subjects with unfavorable marker results who have no PR at 48 weeks to the total subjects with unfavorable marker results (no early reduction or no column).\n(§6) Another criterion for effectiveness is normalization of C3 and/or C4 concentration in blood. The normal concentration of C3 is 90 mg/dl or greater and for C4 16 mg/dl or greater."}, "lupus nephritis [2]": {"system": "lupus nephritis", "assay": "Predictability of week 48 partial remission from early C3/C4 normalization (Table 12)", "type": "in vivo, human", "text": "as §1, §2, §3, §4, §5, §6"}, "lupus nephritis [3]": {"system": "lupus nephritis", "conditions": "cited from earlier work"}},
  "note": "Like-named read-outs stand apart in the source and are kept apart here.",
  "data": [
    {"compound": "C=C/C=C/C[C@@H](C)[C@@H](O)[C@H]1C(=O)N[C@@H](CC)C(=O)N(C)CC(=O)N(C)[C@@H](CC(C)C)C(=O)N[C@@H](C(C)C)C(=O)N(C)[C@@H](CC(C)C)C(=O)N[C@@H](C)C(=O)N[C@H](C)C(=O)N(C)[C@@H](CC(C)C)C(=O)N(C)[C@@H](CC(C)C)C(=O)N(C)[C@@H](C(C)C)C(=O)N1C", "note": "[voclosporin]", "values": [
      {"measurement": "No Week 48 Partial Remission No Normalization", "setting": "lupus nephritis [1]; week 12, 23.7 mg BID", "value": 8},
      {"measurement": "No Week 48 Partial Remission Normalization", "setting": "lupus nephritis [1]; week 12, 23.7 mg BID", "value": 10},
      {"measurement": "No Week 48 Partial Remission No Normalization", "setting": "lupus nephritis [1]; week 12, 39.5 mg BID", "value": 9},
      {"measurement": "No Week 48 Partial Remission Normalization", "setting": "lupus nephritis [1]; week 12, 39.5 mg BID", "value": 8},
      {"measurement": "Normalization No", "setting": "lupus nephritis [1]; week 12, 39.5 mg BID", "value": 31},
      {"measurement": "Normalization Yes", "setting": "lupus nephritis [1]; week 12, 39.5 mg BID", "value": 48},
      {"measurement": "No Week 48 Partial Remission Normalization", "setting": "lupus nephritis [1]; week 24, 23.7 mg BID", "value": 8},
      {"measurement": "Normalization No", "setting": "lupus nephritis [1]; week 24, 23.7 mg BID", "value": 31},
      {"measurement": "Week 48 Partial Remission Normalization", "setting": "lupus nephritis [1]; week 24, 23.7 mg BID", "value": 32},
      {"measurement": "Normalization No", "setting": "lupus nephritis [1]; week 48, 23.7 mg BID", "value": 31},
      {"measurement": "Week 48 Partial Remission Normalization", "setting": "lupus nephritis [1]; week 48, 23.7 mg BID", "value": 29},
      {"measurement": "No Week 48 Partial Remission No Normalization", "setting": "lupus nephritis [1]; week 48, 39.5 mg BID", "value": 11},
      {"measurement": "Normalization Yes", "setting": "lupus nephritis [2]; week 12, 23.7 mg BID", "value": 26},
      {"measurement": "No Week 48 Partial Remission No Normalization", "setting": "lupus nephritis [2]; week 12, 39.5 mg BID", "value": 10},
      {"measurement": "No Week 48 Partial Remission Normalization", "setting": "lupus nephritis [2]; week 12, 39.5 mg BID", "value": 7},
      {"measurement": "Week 48 Partial Remission No Normalization", "setting": "lupus nephritis [2]; week 12, 39.5 mg BID", "value": 33},
      {"measurement": "Week 48 Partial Remission Normalization", "setting": "lupus nephritis [2]; week 12, 39.5 mg BID", "value": 29},
      {"measurement": "No Week 48 Partial Remission No Normalization", "setting": "lupus nephritis [2]; week 24, 23.7 mg BID", "value": 10},
      {"measurement": "No Week 48 Partial Remission Normalization", "setting": "lupus nephritis [2]; week 24, 23.7 mg BID", "value": 4},
      {"measurement": "Normalization Yes", "setting": "lupus nephritis [2]; week 24, 23.7 mg BID", "value": 27},
      {"measurement": "Normalization Yes", "setting": "lupus nephritis [2]; week 24, 39.5 mg BID", "value": 31},
      {"measurement": "No Week 48 Partial Remission No Normalization", "setting": "lupus nephritis [2]; week 48, 23.7 mg BID", "value": 8},
      {"measurement": "No Week 48 Partial Remission Normalization", "setting": "lupus nephritis [2]; week 48, 23.7 mg BID", "value": 2},
      {"measurement": "No Week 48 Partial Remission No Normalization", "setting": "lupus nephritis [2]; week 48, 39.5 mg BID", "value": 11},
      {"measurement": "Normalization Yes", "setting": "lupus nephritis [2]; week 48, 39.5 mg BID", "value": 32},
      {"measurement": "remission", "setting": "lupus nephritis [3]; 23.7 mg or 39.5 mg twice daily with MMF and reducing corticosteroid, 24 weeks and 48 weeks", "value": "successful complete or partial remission in a large number of patients"},
      {"measurement": "remission", "setting": "lupus nephritis [3]; 23.7 mg twice daily with MMF and reducing corticosteroid dose, 24 weeks", "value": "complete remission or partial remission in a large percentage of subjects"}
    ]}
  ]
}
